Here are results for 34 compounds from patent US11312716B2, “9H-pyrrolo-dipyridine derivatives” (UCB Biopharma SRL, priority 2015, dated 2022).

Molecules are shown by their SMILES.

One series has as its target rat MAO-A enzyme (Rattus norvegicus (Rat), UniProt P21396). In words: Rat MAO-A binding, competition for [3H]Ro 41-1049 in rat cerebral cortex. Conditions: for inhibition at 0.01 µM: 10 nM test compound, 10 nM [3H]Ro 41-1049, read-out: Rat MAO-A Binding INHIB 10 nM; for inhibition at 0.1 µM: 100 nM test compound, 10 nM [3H]Ro 41-1049, read-out: Rat MAO-A Binding INHIB 100 nM. Here is the method: Compound selectivity for Tau protein was assessed as compared to a broad panel of receptors, enzymes and ion channels. Selectivity profiling of 10 μM compounds against a panel of 81 targets (n=1 with data in duplicate) was performed. Compounds affinity for rat MAO-A enzyme was assessed in rat cerebral cortex by competition experiment for 10 nM [^3H]Ro 41-1049 and increasing concentrations of test compounds. Compounds affinity for human MAO-A enzyme (1 μg/assay, Sigma-Aldrich, Diegem, Belgium) was assessed by saturation binding experiment performed as described above with [^3H]compounds.

Series [1] is described as follows: Rat brain free fraction (Fu) measurement by equilibrium dialysis. Conditions: male, Sprague-Dawley, brain homogenate (25% w/v in PBS), pH 7.4. (Equilibrium dialysis compares concentrations on both sides of a semipermeable membrane.)
Method: The Brain free faction was carried out in duplicate at a single concentration of 1 μM after 4 h of equilibrium dialysis.
Male Sprague-Dawley Rat (Harlan, Bresso, Italy) brain homogenate were prepared in PBS, pH 7.4 at 25% w/vy using a Precellys 24-dual tissue homogenizer (BERTIN technologies, Montigny-le-Bretonneux, France).
350 μL PBS pH 7.4 was loaded in the other chamber of the insert. The Red device reusable base counting insert containing insert with both samples and buffer was sealed and incubated during 4 h at 37° C., 300 rpm, on an orbital shaker.
At the end of the incubation, all brain samples were diluted 1:1 with PBS and PBS samples were diluted 1:1 with control brain homogenate. All samples were then diluted 1:3 with an internal standard (dextromethorphan 10 ng/mL in acetonitrile, Sigma, St Louis, United states), mixed and centrifuged 5 min at 3000 rpm at 4° C. Supernatant was diluted 1:2 with 0.1% formic acid in water (Biosolve, Dieuze, France) before analysis by LC/MS/MS. The LC system used was an Agilent 1290 (Agilent, Santa Clara, United states) coupled with a API5000 mass spectrometer (ABSciex, Framingham, United states). The software was analyst 1.5.2. (Agilent, Santa Clara, United states), the analytical column was an Aquity UPLC HSS T3 (30×2.1 mm, 1.8 μm, Waters, Saint-Quentin, France) operated at 40° C. Analysis were performed in the gradient described below. Gradient used for LC MS/MS
The Fu brain (%) was calculated using the following equation Fu brain(%)=(1/(1+((1/((fu homogenate)−1)×D)))×100 Where Fu homogenate=peak area ratio buffer/peak area ratio brain and D=dilution factor of the homogenate.

Sequence of rat MAO-A enzyme (P21396 whole entry): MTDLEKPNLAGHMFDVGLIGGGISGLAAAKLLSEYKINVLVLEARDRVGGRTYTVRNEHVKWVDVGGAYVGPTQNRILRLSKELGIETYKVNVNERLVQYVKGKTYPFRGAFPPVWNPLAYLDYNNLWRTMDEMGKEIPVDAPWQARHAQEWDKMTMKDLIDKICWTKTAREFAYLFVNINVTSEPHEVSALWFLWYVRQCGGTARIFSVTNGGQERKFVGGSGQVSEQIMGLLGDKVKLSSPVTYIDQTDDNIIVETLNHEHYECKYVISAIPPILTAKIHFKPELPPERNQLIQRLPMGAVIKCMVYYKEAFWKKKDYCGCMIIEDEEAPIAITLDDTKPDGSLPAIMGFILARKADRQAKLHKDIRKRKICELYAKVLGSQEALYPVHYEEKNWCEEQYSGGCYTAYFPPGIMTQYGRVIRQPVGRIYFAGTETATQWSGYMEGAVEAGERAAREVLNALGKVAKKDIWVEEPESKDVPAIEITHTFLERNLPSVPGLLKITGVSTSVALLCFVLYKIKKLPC

`CNC(=O)c1ccc(-c2ccc3c(n2)[nH]c2cc(COC)ncc23)cn1` [Example 49, 5-(7-(methoxymethyl)-9H-pyrrolo[2,3-b:4,5-c′]dipyridin-2-yl)-N-methylpicolinamide]: at rat MAO-A enzyme, the inhibition at 0.01 µM is -9% and the inhibition at 0.1 µM was -4%.

In the case of `Oc1ccc(-c2ccc3c(n2)[nH]c2ccncc23)cn1` [Example 6, 5-(9H-pyrrolo[2,3-b:4,5-c′]dipyridin-2-yl)pyridin-2-ol], the free fraction (fraction unbound) at 4 h, 1 μM in series [1] worked out at 0.098.

In the case of `CNC(=O)c1ccc(-c2ccc3c(n2)[nH]c2cnccc23)cn1` [Example 53, N-methyl-5-(9H-pyrrolo[2,3-b:5,4-c′]dipyridin-2-yl)picolinamide], the free fraction (fraction unbound) at 4 h, 1 μM in series [1] was determined as 0.015. In addition, on rat MAO-A enzyme, the inhibition at 0.01 µM is -10% and the inhibition at 0.1 µM was -13%.

On to `Cc1cc2[nH]c3nc(-c4ccc(F)nc4)ccc3c2cn1` [Example 45, 2-(6-fluoropyridin-3-yl)-7-methyl-9H-pyrrolo[2,3-b:4,5-c′]dipyridine], for which the fraction unbound at 4 h, 1 μM in series [1] came to 0.011.

Regarding `CNC(=O)c1ccc(-c2ccc3c(n2)[nH]c2cc(C)ncc23)cn1` [Example 46, N-methyl-5-(7-methyl-9H-pyrrolo[2,3-b:4,5-c′]dipyridin-2-yl)picolinamide], on rat MAO-A enzyme, the inhibition at 0.01 µM was 11% and the inhibition at 0.1 µM amounted to 12%.

The compound `Fc1ccc(-c2ccc3c(n2)[nH]c2ncccc23)cn1` [Example 57, 2-(6-fluoropyridin-3-yl)-9H-pyrrolo[2,3-b:5,4-b′]dipyridine] returned a fraction unbound at 4 h, 1 μM in series [1] of 0.013. In addition, on rat MAO-A enzyme, the inhibition at 0.01 µM amounted to 1% and the inhibition at 0.1 µM came out at 8%.

Take `O=C(NCCF)c1ccc(-c2ccc3c(n2)[nH]c2ccncc23)cn1` [Example 29, N-(2-fluoroethyl)-5-(9H-pyrrolo[2,3-b:4,5-c′]dipyridin-2-yl)picolinamide]: at rat MAO-A enzyme, the inhibition at 0.01 µM was 8% and the inhibition at 0.1 µM was 23%.

Compound `c1cc2[nH]c3nc(-c4ccn[nH]4)ccc3c2cn1` [Example 15, 2-(1H-pyrazol-3-yl)-9H-pyrrolo[2,3-b:4,5-c′]dipyridine] showed an unbound share (fraction unbound) at 4 h, 1 μM in series [1] of 0.056.

The compound `Cc1cc(-c2ccc3c(n2)[nH]c2ccncc23)n[nH]1` [Example 24, 2-(5-methyl-1H-pyrazol-3-yl)-9H-pyrrolo[2,3-b:4,5-c′]dipyridine] yielded a free fraction (fraction unbound) at 4 h, 1 μM in series [1] of 0.02. At rat MAO-A enzyme, the inhibition at 0.01 µM was 7% and the inhibition at 0.1 µM was 9%.

In series [1], `COc1ccc(-c2ccc3c(n2)[nH]c2ccncc23)cn1` [Example 5, 2-(6-methoxypyridin-3-yl)-9H-pyrrolo[2,3-b:4,5-c′]dipyridine] returned a fraction unbound at 4 h, 1 μM of 0.006. For the same compound, at rat MAO-A enzyme, the inhibition at 0.01 µM was 8% and the inhibition at 0.1 µM stood at 39%.

In series [1], `COc1ncc(-c2ccc3c(n2)[nH]c2ccncc23)cc1F` [Example 7, 2-(5-fluoro-6-methoxypyridin-3-yl)-9H-pyrrolo[2,3-b:4,5-c′]dipyridine] returned an unbound share (fraction unbound) at 4 h, 1 μM of 0.005.

`c1cc2[nH]c3nc(-c4cnc(N5CCOCC5)nc4)ccc3c2cn1` [Example 10, 4-(5-(9H-pyrrolo[2,3-b:4,5-c′]dipyridin-2-yl)pyrimidin-2-yl)morpholine] gave a fraction unbound at 4 h, 1 μM in series [1] of 0.011.

In turn, `CNc1ccc(C(=O)Nc2ccc3c(n2)[nH]c2ccncc23)cn1` [Example 35, 6-(methylamino)-N-(9H-pyrrolo[2,3-b:4,5-c′]dipyridin-2-yl)nicotinamide] showed a fraction unbound at 4 h, 1 μM in series [1] of 0.005.

For `CNc1ccc(-c2ccc3c(n2)[nH]c2cnccc23)cn1` [Example 55, N-methyl-5-(9H-pyrrolo[2,3-b:5,4-c′]dipyridin-2-yl)pyridin-2-amine], the unbound share (fraction unbound) at 4 h, 1 μM in series [1] was found to be 0.005. Besides, at rat MAO-A enzyme, the inhibition at 0.01 µM was determined as 6% and the inhibition at 0.1 µM is 9%.

With `COCCNC(=O)c1ccc(-c2ccc3c(n2)[nH]c2ccncc23)cn1` [Example 30, N-(2-methoxyethyl)-5-(9H-pyrrolo[2,3-b:4,5-c′]dipyridin-2-yl)picolinamide], on rat MAO-A enzyme, the inhibition at 0.01 µM was 2% and the inhibition at 0.1 µM was determined as 9%.

For the compound `CNC(=O)c1ccc(-c2ccc3c(n2)[nH]c2ccncc23)cn1` [Example 11, N-methyl-5-(9H-pyrrolo[2,3-b:4,5-c′]dipyridin-2-yl)pyridine-2-carboxamide], the unbound share (fraction unbound) at 4 h, 1 μM in series [1] is 0.028. Further, on rat MAO-A enzyme, the inhibition at 0.01 µM is -12% and the inhibition at 0.1 µM is -7%.

`COc1cc(-c2ccc3c(n2)[nH]c2ccncc23)ccn1` [Example 2, 2-(2-methoxypyridin-4-yl)-9H-pyrrolo[2,3-b:4,5-c′]dipyridine] yielded a fraction unbound at 4 h, 1 μM in series [1] of 0.009.

With `c1cc2[nH]c3nc(-c4cn[nH]c4)ccc3c2cn1` [Example 9, 2-(1H-pyrazol-4-yl)-9H-pyrrolo[2,3-b:4,5-c′]dipyridine], in series [1], the free fraction (fraction unbound) at 4 h, 1 μM came to 0.036. For the same compound, on rat MAO-A enzyme, the inhibition at 0.01 µM is -5% and the inhibition at 0.1 µM was 7%.

In series [1], `COc1cnn(-c2ccc3c(n2)[nH]c2ccncc23)c1` [Example 31, 2-(4-methoxy-1H-pyrazol-1-yl)-9H-pyrrolo[2,3-b:4,5-c′]dipyridine] returned a fraction unbound at 4 h, 1 μM of 0.007. Besides, at rat MAO-A enzyme, the inhibition at 0.01 µM stood at 16% and the inhibition at 0.1 µM stood at 39%.

For the compound `Cc1cc2[nH]c3nc(-c4cnn(C)c4)ccc3c2cn1` [Example 47, 7-methyl-2-(1-methyl-1H-pyrazol-4-yl)-9H-pyrrolo[2,3-b: 4,5-c′]dipyridine], the unbound share (fraction unbound) at 4 h, 1 μM in series [1] stood at 0.028. Also, on rat MAO-A enzyme, the inhibition at 0.01 µM is -1% and the inhibition at 0.1 µM is 10%.

Take `c1cc2c(cn1)[nH]c1nc(-c3cn[nH]c3)ccc12` [Example 52, 2-(1H-pyrazol-4-yl)-9H-pyrrolo[2,3-b:5,4-c′]dipyridine]: in series [1], the free fraction (fraction unbound) at 4 h, 1 μM was found to be 0.026.

For `Nc1ncc(-c2ccc3c(n2)[nH]c2ccncc23)cc1F` [Example 12, 3-fluoro-5-(9H-pyrrolo[2,3-b:4,5-c′]dipyridin-2-yl)pyridin-2-amine], in series [1], the free fraction (fraction unbound) at 4 h, 1 μM is 0.005. Moreover, at rat MAO-A enzyme, the inhibition at 0.01 µM was 8% and the inhibition at 0.1 µM came to 13%.

Regarding `c1cnc(N2CCN(c3ccc4c(n3)[nH]c3ccncc34)CC2)nc1` [Example 13, 2-(4-(pyrimidin-2-yl)piperazin-1-yl)-9H-pyrrolo[2,3-b:4,5-c′]dipyridine], the fraction unbound at 4 h, 1 μM in series [1] was 0.011.

Turning to `Fc1ccc(-c2ccc3c(n2)[nH]c2cnccc23)cn1` [Example 54, 2-(6-fluoropyridin-3-yl)-9H-pyrrolo[2,3-b:5,4-c′]dipyridine], in series [1], the unbound share (fraction unbound) at 4 h, 1 μM stood at 0.019. Also, on rat MAO-A enzyme, the inhibition at 0.01 µM was found to be 10% and the inhibition at 0.1 µM came to 12%.

Compound `c1cc2[nH]c3nc(-c4ccc(N5CCOCC5)nc4)ccc3c2cn1` [Example 21, 4-(5-(9H-pyrrolo[2,3-b:4,5-c′]dipyridin-2-yl)pyridin-2-yl)morpholine] displayed a fraction unbound at 4 h, 1 μM in series [1] of 0.005.

On to `COCCNc1ncc(-c2ccc3c(n2)[nH]c2ccncc23)cn1` [Example 22, N-(2-methoxyethyl)-5-(9H-pyrrolo[2,3-b:4,5-c′]dipyridin-2-yl)pyrimidin-2-amine], for which, at rat MAO-A enzyme, the inhibition at 0.01 µM was found to be 8% and the inhibition at 0.1 µM is 15%.

Take `COCc1cc2[nH]c3nc(-c4cnn(C)c4)ccc3c2cn1` [Example 50, 7-(methoxymethyl)-2-(1-methyl-1H-pyrazol-4-yl)-9H-pyrrolo[2,3-b: 4,5-c′]dipyridine]: the fraction unbound at 4 h, 1 μM in series [1] was 0.04. On rat MAO-A enzyme, the inhibition at 0.01 µM stood at 1% and the inhibition at 0.1 µM turned out to be 7%.

As to `FCCn1cc(-c2ccc3c(n2)[nH]c2ccncc23)cn1` [Example 25, 2-[1-(2-fluoroethyl)-1H-pyrazol-4-yl]-9H-pyrrolo[2,3-b: 4,5-c′]dipyridine], in series [1], the fraction unbound at 4 h, 1 μM was 0.087. Further, on rat MAO-A enzyme, the inhibition at 0.01 µM turned out to be 13% and the inhibition at 0.1 µM is 2%.

With `c1cc2[nH]c3nc(-c4cnc(N5CCOCC5)s4)ccc3c2cn1` [Example 32, 4-(5-(9H-pyrrolo[2,3-b:4,5-c′]dipyridin-2-yl)thiazol-2-yl)morpholine], the fraction unbound at 4 h, 1 μM in series [1] worked out at 0.005. Further, on rat MAO-A enzyme, the inhibition at 0.01 µM was found to be 7% and the inhibition at 0.1 µM turned out to be 46%.

`Cn1cc(-c2ccc3c(n2)[nH]c2ccncc23)cn1` [Example 4, 2-(1-methyl-1H-pyrazol-4-yl)-9H-pyrrolo[2,3-b:4,5-c′]dipyridine] displayed a free fraction (fraction unbound) at 4 h, 1 μM in series [1] of 0.075. At rat MAO-A enzyme, the inhibition at 0.01 µM came out at 21% and the inhibition at 0.1 µM came to 50%.

In series [1], `COc1cc2[nH]c3nc(-c4ccc(F)nc4)ccc3c2cn1` [Example 36, 2-(6-fluoropyridin-3-yl)-7-methoxy-9H-pyrrolo[2,3-b:4,5-c′]dipyridine] returned a fraction unbound at 4 h, 1 μM of 0.005.

In the case of `c1cc(N2CCN(c3ccc4c(n3)[nH]c3ccncc34)CC2)ccn1` [Example 14, 2-(4-(pyridin-4-yl)piperazin-1-yl)-9H-pyrrolo[2,3-b:4,5-c′]dipyridine], the fraction unbound at 4 h, 1 μM in series [1] is 0.019.

`CN(C)c1cc2[nH]c3nc(-c4cnn(C)c4)ccc3c2cn1` [Example 44, N,N-dimethyl-2-(1-methyl-1H-pyrazol-4-yl)-9H-pyrrolo[2,3-b:4,5-c′]dipyridin-7-amine]: on rat MAO-A enzyme, the inhibition at 0.01 µM is 2% and the inhibition at 0.1 µM amounted to 9%.

Compound `Cn1cc(-c2ccc3c(n2)[nH]c2cnccc23)cn1` [Example 51, 2-(1-methyl-1H-pyrazol-4-yl)-9H-pyrrolo[2,3-b:5,4-c′]dipyridine] gave a free fraction (fraction unbound) at 4 h, 1 μM in series [1] of 0.045. On rat MAO-A enzyme, the inhibition at 0.01 µM is 3% and the inhibition at 0.1 µM was found to be 6%.

In general, fraction unbound refers to the share of the substance not bound to proteins or other matrix.
